US20220288051A1, “METHODS FOR TREATING CANCER USING SERIAL ADMINISTRATION OF E3 UBIQUITIN LIGASE DEGRADERS” (Dana-Farber Cancer Institute, Inc., priority 2019, published 2022)

Experiments:
[1] = system: MM; details: cited from earlier work
[2] = system: c-Myc; experiment: Immunoblotting of degronimid-treated MM.1S cells: c-Myc; assay type: cell-based, human; details: 0.01-1 μM, 4 h
Protocol: MM.1S cells were seeded in 6-well plates at 3×10^6 cells/well (˜24 h prior to addition of drug). […] Cell pellets were thawed on ice, lysed using RIPA buffer (ThermoFisher) with protease/phosphatase inhibitor cocktail (Cell Signal Technology, Danvers, Mass.) by incubating on ice 30 min. The lysates were clarified by spinning at 10,000 g for 10 min at 4° C. and the concentration of the lysate was determined using BCA protocol (ThermoFisher). Samples were prepared for Western blot using LDS sample buffer (NuPage, Invitrogen, Carlsbad, Calif., USA) with sample reducing agent (NuPage, Invitrogen) and heated to 95° C. for 5 min. Samples were loaded (20 ug/sample) into Tris-acetate or Bis-Tris gels (NuPage, Invitrogen) and run as per kit instructions using appropriate running buffers. Gels were transferred as described (Matthews et al., 2015) onto PVDF membrane using SDS-based transfer buffer (NuPage, Invitrogen). Membranes were blocked (5% skim milk; or 5% bovine serum albumin in TBS-T) for at least 30 min then probed with primary antibodies overnight (4° C.). […] Each protein of interest (BRD2, BRD3, BRD4, c-myc and CDK9) was assessed in a separate gel and corresponding membrane (which was simultaneously incubated with antibodies for both the target protein of interest and GAPDH, to provide a loading control within the same blot). […]

[3] = system: MM.1S cells; experiment: CTG viability of CRISPR-edited MM.1S pools tolerant to bortezomib or JQ1; assay type: cell-based, human; details: after genome-scale gene editing and treatment with JQ1 (500 nM) or bortezomib (25 nM)
Protocol: Cell viability and growth of human MM cell lines were assessed using CellTitre-Glo (CTG) assay (Promega, Madison, Wis.) per kit instructions, or CS-BLI as described (Delmore et al., 2011). Briefly, cells were seeded (5×10^3 cells/well) into 96- or 384-well opaque plates, in supplemented media (40 or 50 uL) and incubated for 24 h prior to addition of drug. For co-culture experiments, HS27A cells were pre-seeded (5×10^3 cells/well) into each well in media prior (24 h) to the addition of MM cells. At each time point (24 h, 48 h, and/or 72 h) CTG reagent (10% volume) was added to each well, and plates were read using a microplate reader (BioTek Synergy 2, BioTek, Winooski, Va.).
(§1) iii. […] Following treatments, all cells were serially cultured without drug and allowed to regrow for as long as required to enable reseeding (60×10^6 cells per flask, 100 mL) and retreatment with individual drugs while maintaining ˜1000× coverage throughout. Concomitant with retreatment, remaining cells were frozen (−80° C.; 20% FBS/DMSO) for later analysis or assessed for drug resistance/sensitivity using CTG assays. Between treatments, and in order to maintain the health of cultures, dead cells were periodically removed using Ficoll centrifugation (1,500 rpm for 10-20 min). For all CRISPR drug treatment experiments, aliquots of MM.1S-Cas9+ cells transduced with the GeCKO(Sanjana et al., 2014; Shalem et al., 2014) or Brunello (Doench et al., 2016) sgRNA libraries were frozen immediately prior to experimentation to determine the baseline distribution of sgRNAs in the cell population.

[4] = system: MM.1S-Cas9+ cells; experiment: Genome-scale CRISPR/Cas9 gene editing (LOF) resistance screens; assay type: cell-based, human; details: long-term treatment; NGS of sgRNAs
Protocol: MM.1S cells transduced with lentiviral construct for SpCas9 were kindly provided from Quinlan Sievers (Ebert Lab, BWH/DFCI). MM.1S cells were also transduced with lentiviral construct for dCas9-VP64 (purchased from Addgene).
ii. Lentiviral transductions with sgRNA libraries: For the screen with the GECKOv2 sgRNA library, tumor cell transductions were performed in batches of 8×10^7 cells per sub-library for each replicate. Cells were incubated for 16 hrs in cell medium containing polybrene (2 μg/mL; Santa Cruz Biotechnology), 10 mM HEPES (pH 7.4) (Sigma-Aldrich) and viral prep (4 mL) diluted to achieve an MOI of 0.4. After the end of the incubation with the viral preps, cells were washed and incubated for an additional day. Transduced cells were cultured at an initial density of 1×10^6 cells/mL and were treated with puromycin (1 μg/mL) for up to 14 days immediately after transduction. After puromycin selection, MM.1S-Cas9^+ cells transduced with each GeCKOv2 sublibrary were plated at 60×10^6 cells per flask (T175, 100 mL) to enable coverage of ˜1000× and were sub-cultured at four to five-day intervals to prevent confluence. At each passage, cells were harvested, washed with PBS (Corning, N.Y.), pelleted (5000 rpm, 5 min, 4° C.) and frozen as cell pellets (−80° C.) for next generation sequencing, and also replated at 60×10^6 cells to maintain 1000× coverage.
For the genome-scale screens with the Brunello sgRNA library, tumor cell transductions were performed in batches of 5×10^7 cells per library for six replicates. Cells were incubated (18 h) in cell medium containing polybrene (5 μg/mL; Santa Cruz Biotechnology), 10 mM HEPES (pH 7.4) (Sigma-Aldrich) and viral prep (30 mL) diluted 1:1. Transduced cells were cultured at an initial density of 1×10^6 cells/mL and were treated with puromycin (1 μg/mL) for up to 5 days additional two days from transduction. After stable transduction, pooled MM.1S cells were plated at 40×10^6 cells per flask (T175, 100 mL) to enable coverage of 500× and were sub-cultured at three- to four day intervals to prevent confluence. At each passage, cells were harvested, washed with PBS (Corning), pelleted (5000 rpm, 5 min, 4° C.) and frozen as cell pellets (−80° C.) for next generation sequencing, and also replated at 40×10^6 cells (˜500× coverage).
as §1
For “long-term” treatment screens with Thal-SNS-032-, ARV-771- and MZ-1-resistant cells, we continuously treated MM.1S-Cas9+ cells (40×10^6, —500× coverage) transduced with the Brunello sgRNA library (4 weeks post-puromycin selection) with either each compound's (IC20) or vehicle control. Cells were serially passaged every 3-4 days to prevent confluence, each time replating at ˜500× coverage (100 mL) at the same time replenishing each compound or vehicle. Drug treatments were paused if cell numbers fell below 10×10^6 per flask, allowing cells to recover and regrow, and treatments were resumed at a lower concentration when cell numbers reached 40×10^6. At each passage, cells were assayed for drug sensitivity/resistance using CTG. […]

[5] = system: MM.1S Cas9+ cells; experiment: Dose-response assay of cells with individual sgRNA knock-outs, CTG; assay type: cell-based, human; details: compared to parental MM.1S cells
Protocol: Non-targeting control sgRNAs and COPS7B sgRNAs were from GeCKOv2. Four sgRNAs were generated per each gene, except from COPS7B, for which 6 sgRNAs were available (Table S2). All sgRNAs were synthesized by CustomArray Inc (Bothell, Wash.). Cloning was performed according to the protocol published by Zhang et al. (media.addgene.org/cms/filer_public/4f/ab/4fabc269-56e2-4ba5-92bd-09dc89c1e862/zhang_lenticrisprv2_and_lentiguide_oligo_cloning_protocol_1.pdf) using a pHKO9 vector. Briefly, to clone the sgRNA guide sequence, plasmids were digested with BsmBI (New England Biolabs, Ipswich, Mass.) at 55° C. for 1 hour. Oligonucleotides for each sgRNA guide sequence were annealed and phosphorylated using T4 Ligation Buffer and T4 polynucleotide kinase (New England Biolabs) at 37° C. for 30 minutes and then annealed by heating to 95° C. for 5 minutes and cooling to 25° C. at 1.5° C./minute. Using T4 ligation buffer and T4 ligase (New England Biolabs), annealed oligos were ligated into gel purified vectors (Qiagen) at 65° C. for 10 minutes. 2.5 ug of the ligation product were transformed in 30 uL E. coli electrocompetent cells (Lucigen E.cloni 10 G ELITE PLUS, Invitrogen). Subsequently, 500 uL of transformed cells were plated on LB Agar-AmpR (ThermoFisher Scientific) and incubated overnight at 37° C. Three colonies per plate were then picked and inoculated in a mini-prep culture (Qiagen). The product was then digested with BsmBI and XhoI (New England Biolabs) at 37° C. for 1 h and compared to the uncut control on 1% agarose gel. One out of three colonies (10 uL) was then precultured in 3 mL LB Broth-AmpR and shaken at 37° C. for 6 h. Afterwards it was transferred to a 250 mL LB Broth-AmpR flask and incubated overnight at 37° C. Each culture was then inoculated into a maxiprep culture (Qiagen).
Also, CRBN, VHL, TCEBJ, TCEB2, UBE2R2 and FBXW2 sgRNA are selected from Brunello library and cloned using pLVX-hyg-sgRNA1 Vector system (Takara Bio USA, CA) according to the manufacturer's manual. b(takarabio.com/assets/documents/User %20Manual/Lenti-X_CRISPR-Cas9_System_User_Manual_121316.pdf)
ii. Lentiviral transductions with constructs for individual sgRNAs: 500×10^3 to 1×10^6 MM.1S Cas9 cells were plated in 50 uL of complete RPMI1640 medium per well in a 24-well plate, and additional 100 uL of complete RPMI1640 medium were added to cover the well completely. Cells were incubated in cell medium containing polybrene (5 to 8 μg/mL; Santa Cruz Biotechnology), and viral prep. 24 hours after addition of viral preps, media were changed and, after another 48 h, puromycin selection (1 to 2 ug/ml per well) was started. After 7 days of puromycin selection, transduced MM.1S Cas9+ cells were collected and expanded in T75 flasks.
iii. […] In the case of Thal-SNS-032 or ARV771, cells are plated 384-well plate and treated each concentration described at figure and viability assays were performed at 72 hrs.

[6] = system: pools of MM cells; experiment: Sequential exposure to CRBN- and VHL-based degraders, CTG; assay type: cell-based, human; details: compared to treatment-naïve cells
Description: We addressed this question using pools of MM cells derived from several of our genome-scale CRISPR-based screens.

Row | Structure (SMILES) | induction of apoptosis ([1]; most cell types tested) | anti-tumor activity ([1]; preclinical in vitro and in vivo models of MM) | c-Myc protein levels [2] | responsiveness of drug-exposed pools to the same agent [3] | sgRNA enrichment in resistant cells, long-term screen [4] | response of cells with sgRNAs against COPS7B or COPS8 [5] | shift of dose response curve in pools previously exposed to CRBN-based degraders [6]
1 | Cc1sc2c(c1C)C(c1ccc(Cl)cc1)=N[C@@H](CC(=O)OC(C)(C)C)c1nnc(C)n1-2 [JQ1] | does not induce apoptosis in most cell types tested | has anti-tumor activity | less pronounced depletion of c-Myc | decreased responsiveness |  |  | 
2 | Cc1ncsc1-c1ccc(CNC(=O)[C@@H]2C[C@@H](O)CN2C(=O)[C@@H](NC(=O)COCCOCCOCCNC(=O)C[C@@H]2N=C(c3ccc(Cl)cc3)c3c(sc(C)c3C)-n3c(C)nnc32)C(C)(C)C)cc1 [MZ-1] |  |  |  |  | enrichment of sgRNAs for CUL2, VHL itself | decreased response | limited, if any, shift
3 | CC(C)C[C@H](NC(=O)[C@H](Cc1ccccc1)NC(=O)c1cnccn1)B(O)O [bortezomib] |  |  |  | decreased responsiveness |  |  | 
